Laboratory results: PubChem BioAssay (NCI)
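The compound was tested at five concentrations on cells cultured in 96-well plates, with a 48-hour exposure period. GI50: concentration for 50% inhibition of growth. At the TGI there is no net growth.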

Legend:
Assay in all cases: NCI tumour cell line growth inhibition, 48 h
CAKI-1 renal = system: CAKI-1 renal
HT29 colon = system: HT29 colon
K-562 leukemia = system: K-562 leukemia
KM12 colon = system: KM12 colon
LOX IMVI melanoma = system: LOX IMVI melanoma
NCI-H23 lung = system: NCI-H23 lung
OVCAR-3 ovarian = system: OVCAR-3 ovarian
RXF 393 renal = system: RXF 393 renal
SNB-19 CNS = system: SNB-19 CNS
UACC-257 melanoma = system: UACC-257 melanoma

SMILES	TGI (CAKI-1 renal) [µM]	TGI (HT29 colon) [µM]	TGI (K-562 leukemia) [µM]	TGI (KM12 colon) [µM]	TGI (LOX IMVI melanoma) [µM]	TGI (NCI-H23 lung) [µM]	TGI (OVCAR-3 ovarian) [µM]	TGI (RXF 393 renal) [µM]	TGI (SNB-19 CNS) [µM]	TGI (UACC-257 melanoma) [µM]	GI50 (CAKI-1 renal) [µM]	GI50 (HT29 colon) [µM]	GI50 (K-562 leukemia) [µM]	GI50 (KM12 colon) [µM]	GI50 (LOX IMVI melanoma) [µM]	GI50 (NCI-H23 lung) [µM]
O=C(O)C(Cc1cccs1)C(=O)O	> 100	> 100	> 100	> 100	> 100	> 100	> 100	> 100	> 100	> 100						
c1ccc(N=NNNc2ccc(-c3nc4ccccc4[nH]3)cc2)cc1	> 100	94.7	94.6	> 100	> 100	> 100	38.1	55.8	> 100	> 100						
CC1CC[C@]2(C(=O)O)CCC3(C)C(=C2[C@H]1C)C=CC1[C@@]2(C)CC[C@H](O)C(C)(C)C2CC[C@]13C (stereo partly specified)	84.1	> 100	> 100	> 100	> 100	> 100	73.1	29	> 100	> 100						
S=C1CC(c2ccc(Cl)cc2)Sc2ccccc2N1 (stereo unspecified)	> 100	> 100	> 10	> 100	> 100	> 100	68	48.6	94	> 100						
O=C(c1ccco1)N(C(=S)N1CCN(c2ccccc2)CC1)c1ccccc1	> 100	> 100	> 100	> 100	> 100	> 100	> 100	> 100	> 100	> 100						
COc1cc(C2c3cc4c(cc3OC(N3CCOCC3)C2C)OCO4)cc(OC)c1O (stereo unspecified)	26.1	27.7	> 75.5	> 100	> 100	> 100	> 34	85.4	> 75.1	> 100						
COc1ccc(N=C/C=C/Nc2ccc(OC)cc2)cc1	12.5	8.31	31	9.55	5.45	41.2	3.45	18.5	10.4	18.7						
COc1cccc(C2c3cc4c(cc3OC(N3CCOCC3)C2C)OCO4)c1O (stereo unspecified)	18.6	28.8	38.1	46.9	25	52.6	30.8	9.43	36.4	> 83.3						
O=C1CC(O)c2c(Cl)sc(Cl)c21 (stereo unspecified)	9.68	10	> 28.7	> 22.7	5.24	35.6	12.9	12.2	40.2	27.7						
c1ccc2c(c1)SC1Sc3ccccc3[S+]21 (stereo unspecified)	44.8	> 85.3	> 23.3	31.1	45.6	37.4	46	> 73.1	> 100	33.8						
CO[P@]1(=O)O[C@@H](c2ccccc2)[C@H](O)[C@]1(O)c1ccccc1	> 100	> 100	> 100	> 100	> 100	> 100	> 100	> 100	> 100	> 100						
NC1CCC(c2cc3ccccc3s2)(N2CCCCC2)CC1 (stereo unspecified)	10.1	2.45	3.44	3.78	2.84	3.23	2.81	21.2	26.8	3.44						
Cn1c(N/N=C/c2ccc(Cl)cc2)nc(-c2ccc(Cl)cc2)c(C#N)c1=O	> 100	> 100	> 100	57.6	57.6	38.6	32.7	57.8	> 100	> 100						
COc1cc2[nH]c(-c3ccccc3)cc(=O)c2cc1OC	> 100	56.7	> 100	> 74.9	> 100	> 84.6	> 100	> 72.7	> 100	> 100						
CC1(C)N=C(N)N=C(N)N1c1cccc(CSc2ccccc2)c1	> 100	> 100	> 100	> 100	> 100	> 100	> 100	95.9	> 100	> 100						
Cn1c2ccccc2n2c3nc4ccccc4nc3c(C#N)c12	> 100	> 100	> 100	> 100	> 100	> 100	> 100	> 100	> 100	> 100						
CCOC(=O)/C=C(/C(=O)OCC)n1cc(C)c(=O)n(Cc2cnnn2CCCCOC(C)=O)c1=O	21.4	34.3	> 100	> 100	41	90.8	32.2	> 100	> 100	> 100						
O=C(CSC1=NCCN1)c1ccccc1	> 100	> 100	> 100	> 100	> 100	> 100	> 100	> 100	> 100	> 100						
NNC(=O)c1ccccc1NC(=O)/C(=C/c1ccccc1)NC(=O)c1ccccc1	> 100	> 100	> 100	> 100	> 100	> 100	> 100	> 100	> 100	> 100						

SMILES	TGI (CAKI-1 renal) [µM]	TGI (HT29 colon) [µM]	TGI (K-562 leukemia) [µM]	TGI (KM12 colon) [µM]	TGI (LOX IMVI melanoma) [µM]	TGI (NCI-H23 lung) [µM]	TGI (OVCAR-3 ovarian) [µM]	TGI (RXF 393 renal) [µM]	TGI (SNB-19 CNS) [µM]	TGI (UACC-257 melanoma) [µM]	GI50 (CAKI-1 renal) [µM]	GI50 (HT29 colon) [µM]	GI50 (K-562 leukemia) [µM]	GI50 (KM12 colon) [µM]	GI50 (LOX IMVI melanoma) [µM]	GI50 (NCI-H23 lung) [µM]
O=C1NC(N2CCOCC2)=N/C1=C\c1ccccc1O	> 100	> 100	> 100	> 100	> 100	> 100	> 100	> 100	> 100	> 100						
COC(=O)/C=C1/OC(c2ccccc2)=C(Cl)C1=O	32.7	48.4	25.9	45.6	26.8	39.4	33.8	35.9	> 66.9	66						
Cc1nc2ccccc2n1CCc1nc2ccccc2s1	> 100	> 100	> 100	> 100	> 100	> 100	> 100	> 100	> 100	> 100						
NS(=O)(=O)c1ccc(/C=C/c2cccc(O)c2)cc1	> 100	> 100	> 100	> 100	> 100	> 100	80.4	> 100	> 100	> 100	50.2	43.3	43.4	35.4	43	46.1
C=C(Br)CN(C#N)CC(=C)Br	> 100	> 100	> 100	> 100	> 100	> 100	> 100	> 100	> 100	> 100						
COC(=O)C(Cc1ccccc1)NC(=O)CNC(=O)CSc1nnc(COc2ccc(Cl)cc2)n1-c1ccccc1 (stereo unspecified)	25.3	35.3	> 75.6	35.2	13.8	35.6	30.9	33.1	31.4	28.8						
COC(=O)CC1C2CC3C(C2=O)C13 (stereo unspecified)	> 100	> 100	> 100	> 100	> 100	> 100	> 100	> 100	> 100	> 100						
COc1cc2c(cc1OCCCC(=O)Nc1cc(C(=O)Nc3cc(C(=O)NCCCN(C)C)n(C)n3)n(C)n1)N=CC1CCCN1C2=O (stereo unspecified)	31.2	30.8	27.7	> 100	57	39.1	33	33.6	34.2	35.2						
CC(=O)C(=C(I)I)c1ccccc1	3.66	35.2	53.5	41.4	49.1	36.2	30.3	46.4	37.2	32.7						
CN(C)c1ccc(C(c2ccc(N(C)C)cc2)c2ccc([N+](=O)[O-])cc2)cc1	> 100	> 100	> 100	> 100	> 100	> 100	> 100	> 100	> 100	> 100						
CN(C)CCCOC(=O)C(O)(Cc1ccccc1)C1CC1 (stereo unspecified)	> 100	> 100	> 100	> 100	> 100	> 100	> 100	> 100	> 100	> 100						
CCN(CC)C(=O)CCCCCCCCC1CO1 (stereo unspecified)	> 100	> 100	> 100	> 100	> 100	> 100	> 100	> 100	> 100	> 100						
COc1ccc(-c2cn3c(n2)sc2cc(C)ccc23)cc1	> 100	> 100	> 100	> 100	> 100	> 100	> 100	35.8	> 100	24.2						
O=C(c1cccs1)N(C(=O)N1CCC(c2ccccc2)CC1)c1ccccc1	> 100	> 100	> 100	50.9	> 100	> 100	> 100	> 100	> 100	> 100						
O=C1CSC2(CCN(CCCN3c4ccccc4Sc4ccc(Cl)cc43)CC2)N1	25	11.9	16.8	19.1	16.6	24.1	22.1	16.3	26	22						
C/C(=N/O)c1cccc(Nc2nc3ccccc3c3[nH]c4ccccc4c23)c1	6.89	6.51	10.6	9.92	6.06	11.8	5.1	4.59	19.2	17.6						
C=C[C@H]1CN2CC[C@H]1C[C@@H]2[C@@H](O)c1ccnc2ccccc12	> 100	> 100	> 100	> 100	> 100	> 100	> 100	> 100	> 100	> 100						
CC1=Nn2c(nc3sc4c(c3c2=O)CCCC4)SC1	> 100	> 100	> 100	> 100	53.7	> 100	> 100	> 100	> 100	> 100						
